Assay results taken from ChEMBL document CHEMBL3612057, “Discovery of indolizines containing triazine moiety as new leads for the development of antitumoral agents targeting mitotic events” (2015).
Calls of active or inactive are those of the source. No cut-off for these calls is given here.

Key:
UACC-62 = test: Cytotoxicity against human UACC62 cells assessed as growth inhibition at 10 uM after 24 hrs by SRB assay; type: functional; conditions: UACC-62, 24 h, read-out: GI
786-0 = test: Cytotoxicity against human 786-0 cells assessed as growth inhibition at 10 uM after 24 hrs by SRB assay; type: functional
A549 = test: Cytotoxicity against human A549 cells assessed as growth inhibition at 10 uM after 24 hrs by SRB assay; type: functional; conditions: A549, 24 h, read-out: GI
MDA-MB-231 = test: Cytotoxicity against human MDA-MB-231 cells assessed as growth inhibition at 10 uM after 24 hrs by SRB assay; type: functional; conditions: MDA-MB-231, 24 h, read-out: GI
UACC-257 = test: Cytotoxicity against human UACC257 cells assessed as growth inhibition at 10 uM after 24 hrs by SRB assay; type: functional
SK-MEL-28 = test: Cytotoxicity against human SK-MEL-28 cells assessed as growth inhibition at 10 uM after 24 hrs by SRB assay; type: functional
ACHN = test: Cytotoxicity against human ACHN cells assessed as growth inhibition at 10 uM after 24 hrs by SRB assay; type: functional; conditions: read-out: GI
HOP-62 = test: Cytotoxicity against human HOP62 cells assessed as growth inhibition at 10 uM after 24 hrs by SRB assay; type: functional
RPMI-8226 = test: Cytotoxicity against human RPMI8226 cells assessed as growth inhibition at 10 uM after 24 hrs by SRB assay; type: functional; conditions: RPMI-8226, 24 h, read-out: GI
Ovis aries = species: Ovis aries; test: Inhibition of sheep tubulin polymerization at 100 uM by fluorescence assay
SF-295 = test: Cytotoxicity against human SF295 cells assessed as growth inhibition at 10 uM after 24 hrs by SRB assay; type: functional; conditions: SF-295, 24 h, read-out: GI
Malme-3M = test: Cytotoxicity against human MALME-3M cells assessed as growth inhibition at 10 uM after 24 hrs by SRB assay; type: functional
SK-OV-3 = test: Cytotoxicity against human SKOV3 cells assessed as growth inhibition at 10 uM after 24 hrs by SRB assay; type: functional
NCI-H460 = test: Cytotoxicity against human NCI-H460 cells assessed as growth inhibition at 10 uM after 24 hrs by SRB assay; type: functional
CAKI-1 = test: Cytotoxicity against human CAKI-1 cells assessed as growth inhibition at 10 uM after 24 hrs by SRB assay; type: functional; conditions: CAKI-1, 24 h, read-out: GI
CCRF-CEM = test: Cytotoxicity against human CCRF-CEM cells assessed as growth inhibition at 10 uM after 24 hrs by SRB assay; type: functional; conditions: read-out: GI
TK-10 = test: Cytotoxicity against human TK10 cells assessed as growth inhibition at 10 uM after 24 hrs by SRB assay; type: functional
NCI/ADR-RES = test: Cytotoxicity against human NCI/ADR-RES cells assessed as growth inhibition at 10 uM after 24 hrs by SRB assay; type: functional; conditions: read-out: GI
U-251 = test: Cytotoxicity against human U251 cells assessed as growth inhibition at 10 uM after 24 hrs by SRB assay; type: functional
RXF 393 = test: Cytotoxicity against human RXF393 cells assessed as growth inhibition at 10 uM after 24 hrs by SRB assay; type: functional; conditions: RXF 393, 24 h, read-out: GI
OVCAR-4 = test: Cytotoxicity against human OVCAR4 cells assessed as growth inhibition at 10 uM after 24 hrs by SRB assay; type: functional
OVCAR-3 = test: Cytotoxicity against human OVCAR3 cells assessed as growth inhibition at 10 uM after 24 hrs by SRB assay; type: functional; conditions: OVCAR-3, 24 h, read-out: GI
T47D = test: Cytotoxicity against human T47D cells assessed as growth inhibition at 10 uM after 24 hrs by SRB assay; type: functional
NCI-H522 = test: Cytotoxicity against human NCI-H522 cells assessed as growth inhibition at 10 uM after 24 hrs by SRB assay; type: functional; conditions: NCI-H522, 24 h, read-out: GI
[1] = Cytotoxicity against human Hs578T cells assessed as growth inhibition at 10 uM after 24 hrs by SRB assay; type: functional; conditions: Hs-578T, read-out: GI
NCI-H226 = test: Cytotoxicity against human NCI-H226 cells assessed as growth inhibition at 10 uM after 24 hrs by SRB assay; type: functional
SR = test: Cytotoxicity against human SR cells assessed as growth inhibition at 10 uM after 24 hrs by SRB assay; type: functional; conditions: read-out: GI
HOP-92 = test: Cytotoxicity against human HOP92 cells assessed as growth inhibition at 10 uM after 24 hrs by SRB assay; type: functional
SK-MEL-5 = test: Cytotoxicity against human SK-MEL-5 cells assessed as growth inhibition at 10 uM after 24 hrs by SRB assay; type: functional; conditions: SK-MEL-5, 24 h, read-out: GI
MCF7 = test: Cytotoxicity against human MCF7 cells assessed as growth inhibition at 10 uM after 24 hrs by SRB assay; type: functional; conditions: MCF7, 24 h, read-out: GI
SNB-75 = test: Cytotoxicity against human SNB75 cells assessed as growth inhibition at 10 uM after 24 hrs by SRB assay; type: functional; conditions: SNB-75, 24 h, read-out: GI
HL-60(TB) = test: Cytotoxicity against human HL-60(TB) cells assessed as growth inhibition at 10 uM after 24 hrs by SRB assay; type: functional
OVCAR-8 = test: Cytotoxicity against human OVCAR8 cells assessed as growth inhibition at 10 uM after 24 hrs by SRB assay; type: functional; conditions: OVCAR-8, 24 h, read-out: GI
K562 = test: Cytotoxicity against human K562 cells assessed as growth inhibition at 10 uM after 24 hrs by SRB assay; type: functional; conditions: K562, 24 h, read-out: GI
SF-539 = test: Cytotoxicity against human SF539 cells assessed as growth inhibition at 10 uM after 24 hrs by SRB assay; type: functional
PC-3 = test: Cytotoxicity against human PC3 cells assessed as growth inhibition at 10 uM after 24 hrs by SRB assay; type: functional; conditions: PC-3, 24 h, read-out: GI
HCT-116 = test: Cytotoxicity against human HCT116 cells assessed as growth inhibition at 10 uM after 24 hrs by SRB assay; type: functional
MDA-MB-435 = test: Cytotoxicity against human MDA-MB-435 cells assessed as growth inhibition at 10 uM after 24 hrs by SRB assay; type: functional

## COc1nc(OC)nc(-c2cc(C(=O)c3cc(OC)c(OC)c(OC)c3)n3c(C)cccc23)n1
UACC-62
  inhibition of growth at 10 µM: 30%
786-0
  growth inhibition (GI): inactive
A549
  inhibition of growth at 10 µM: 17%
MDA-MB-231
  inhibition of growth at 10 µM: 17%
UACC-257
  growth inhibition (GI): inactive
SK-MEL-28; SK-MEL-28, 24 h, read-out: GI
  inhibition of growth at 10 µM: 14%
ACHN
  inhibition of growth at 10 µM: 30%
HOP-62; HOP-62, 24 h, read-out: GI
  inhibition of growth at 10 µM: 34%
RPMI-8226
  inhibition of growth at 10 µM: 10%
Ovis aries
  inhibition: inactive
SF-295
  inhibition of growth at 10 µM: 15%
Malme-3M; read-out: GI
  inhibition of growth at 10 µM: 37%
SK-OV-3; SK-OV-3, 24 h, read-out: GI
  inhibition of growth at 10 µM: 18%
NCI-H460
  growth inhibition (GI): inactive
CAKI-1
  inhibition of growth at 10 µM: 11%
CCRF-CEM
  inhibition of growth at 10 µM: 10%
TK-10
  growth inhibition (GI): inactive
NCI/ADR-RES
  inhibition of growth at 10 µM: 15%
U-251
  growth inhibition (GI): inactive
RXF 393
  inhibition of growth at 10 µM: 31%
OVCAR-4
  growth inhibition (GI): inactive
OVCAR-3
  inhibition of growth at 10 µM: 19%
T47D
  growth inhibition (GI): inactive
NCI-H522
  inhibition of growth at 10 µM: 56%
[1]
  inhibition of growth at 10 µM: 17%
NCI-H226
  growth inhibition (GI): inactive
SR
  inhibition of growth at 10 µM: 67%
HOP-92
  growth inhibition (GI): inactive
SK-MEL-5
  inhibition of growth at 10 µM: 41%
MCF7
  inhibition of growth at 10 µM: 55%
SNB-75
  inhibition of growth at 10 µM: 67%
HL-60(TB); HL-60, 24 h, read-out: GI
  inhibition of growth at 10 µM: 33%
OVCAR-8
  inhibition of growth at 10 µM: 12%
K562
  inhibition of growth at 10 µM: 45%
SF-539; SF-539, 24 h, read-out: GI
  inhibition of growth at 10 µM: 14%
PC-3
  inhibition of growth at 10 µM: 19%
HCT-116; HCT-116, 24 h, read-out: GI
  inhibition of growth at 10 µM: 15%
MDA-MB-435; MDA-MB-435, 24 h, read-out: GI
  inhibition of growth at 10 µM: 86%

## COc1nc(OC)nc(-c2cc(C(=O)c3cc(OC)c(OC)c(OC)c3)n3c(-c4ccccc4)cccc23)n1
UACC-62
  inhibition of growth at 10 µM: 39%
786-0
  growth inhibition (GI): inactive
A549
  inhibition of growth at 10 µM: 28%
MDA-MB-231
  inhibition of growth at 10 µM: 23%
UACC-257
  growth inhibition (GI): inactive
SK-MEL-28
  growth inhibition (GI): inactive
ACHN
  inhibition of growth at 10 µM: 30%
HOP-62
  growth inhibition (GI): inactive
RPMI-8226
  inhibition of growth at 10 µM: 52%
Ovis aries
  inhibition: inactive
SF-295
  inhibition of growth at 10 µM: 40%
Malme-3M
  growth inhibition (GI): inactive
SK-OV-3
  growth inhibition (GI): inactive
NCI-H460; NCI-H460, 24 h, read-out: GI
  inhibition of growth at 10 µM: 14%
CAKI-1
  inhibition of growth at 10 µM: 43%
CCRF-CEM
  inhibition of growth at 10 µM: 62%
TK-10
  growth inhibition (GI): inactive
NCI/ADR-RES
  inhibition of growth at 10 µM: 38%
U-251
  growth inhibition (GI): inactive
RXF 393
  inhibition of growth at 10 µM: 15%
OVCAR-4; OVCAR-4, 24 h, read-out: GI
  inhibition of growth at 10 µM: 18%
OVCAR-3
  inhibition of growth at 10 µM: 28%
T47D; read-out: GI
  inhibition of growth at 10 µM: 32%
NCI-H522
  inhibition of growth at 10 µM: 11%
[1]
  inhibition of growth at 10 µM: 14%
NCI-H226
  growth inhibition (GI): inactive
SR
  inhibition of growth at 10 µM: 29%
HOP-92
  growth inhibition (GI): inactive
SK-MEL-5
  inhibition of growth at 10 µM: 67%
MCF7
  inhibition of growth at 10 µM: 22%
SNB-75
  inhibition of growth at 10 µM: 23%
HL-60(TB)
  growth inhibition (GI): inactive
OVCAR-8
  inhibition of growth at 10 µM: 41%
K562
  inhibition of growth at 10 µM: 29%
SF-539
  growth inhibition (GI): inactive
PC-3
  inhibition of growth at 10 µM: 37%
HCT-116
  growth inhibition (GI): inactive
MDA-MB-435
  growth inhibition (GI): inactive
